# In ChEMBL document CHEMBL3885861, “Open TG-GATES”:
# Organism: Rattus norvegicus
# Assay: Open TG-GATES - Regimen: Daily Repeat
# Assay type: toxicity, organism-based, Sprague-Dawley
# Parameters: regimen Daily Repeat, gender Male, age 6 weeks
# Settings: in vivo, po, 30 mg/kg, route gavage, dose level Middle; for APTT / Bas / Eos / Fbg / Hb / Ht / Lym / MCH / MCHC / MCV / Mono / Neu / PT / Plat / RBC / Ret / WBC: tissue Blood; for KIDNEY_L / KIDNEY_R / KIDNEY_TOTAL: tissue Kidney; for LIVER: tissue Liver; for A/G / ALP / ALT / AST / BUN / CRE / Ca / Cl / DBIL / GLC / IP / K / LDH / Na / PL / RALB / TBIL / TC / TG / TP / gamma-GTP: tissue Plasma
structure (smiles),measurement,setting,value
OCCOCCN1CCN(C(c2ccccc2)c2ccc(Cl)cc2)CC1 (configuration not stated) [HYDROXYZINE],TERMINAL_BW,"72 h, time 3 day",226.2 g
same,APTT,"72 h, time 3 day",15.8 s
same,Bas,"72 h, time 3 day",0%
same,Eos,"72 h, time 3 day",1%
same,Fbg,"72 h, time 3 day",261.2 mg/dL
same,Hb,"72 h, time 3 day",13.3 g/dL
same,Ht,"72 h, time 3 day",40%
same,Lym,"72 h, time 3 day",77.6%
same,MCH,"72 h, time 3 day",21.9 pg
same,MCHC,"72 h, time 3 day",33.3%
same,MCV,"72 h, time 3 day",65.7 fL
same,Mono,"72 h, time 3 day",3%
same,Neu,"72 h, time 3 day",17.8%
same,PT,"72 h, time 3 day",15.3 s
same,Plat,"72 h, time 3 day",120.2 x10_4/uL
same,RBC,"72 h, time 3 day",609.6 x10_4/ul
same,Ret,"72 h, time 3 day",6.9%
same,WBC,"72 h, time 3 day",89.6 x10_2/uL
same,KIDNEY_L,"72 h, time 3 day",1 g
same,KIDNEY_R,"72 h, time 3 day",1 g
same,KIDNEY_TOTAL,"72 h, time 3 day",2 g
same,LIVER,"72 h, time 3 day",10.9 g
same,A/G,"72 h, time 3 day",0.9
same,ALP,"72 h, time 3 day",1463.8 IU/L
same,ALT,"72 h, time 3 day",40.4 IU/L
same,AST,"72 h, time 3 day",66.6 IU/L
same,BUN,"72 h, time 3 day",16.8 mg/dL
same,CRE,"72 h, time 3 day",0.2 mg/dL
same,Ca,"72 h, time 3 day",11.1 mg/dL
same,Cl,"72 h, time 3 day",104.8 meq/L
same,DBIL,"72 h, time 3 day",0.012 mg/dL
same,GLC,"72 h, time 3 day",186 mg/dL
same,IP,"72 h, time 3 day",7.9 mg/dL
same,K,"72 h, time 3 day",4 meq/L
same,LDH,"72 h, time 3 day",72.6 IU/L
same,Na,"72 h, time 3 day",143.6 meq/L
same,PL,"72 h, time 3 day",158.6 mg/dL
same,RALB,"72 h, time 3 day",2.6 g/dL
same,TBIL,"72 h, time 3 day",0.05 mg/dL
same,TC,"72 h, time 3 day",83 mg/dL
same,TG,"72 h, time 3 day",100.8 mg/dL
same,TP,"72 h, time 3 day",5.6 g/dL
same,gamma-GTP,"72 h, time 3 day",0.8 IU/L
same,TERMINAL_BW,"[…], time 7 day",271.6 g
same,TERMINAL_BW,"[…], time 14 day",331.8 g
same,TERMINAL_BW,"[…], time 28 day",390.1 g
same,APTT,"[…], time 7 day",17 s
same,Bas,"[…], time 7 day",0.2%
same,Eos,"[…], time 7 day",0.6%
same,Fbg,"[…], time 7 day",265.6 mg/dL
same,Hb,"[…], time 7 day",13.6 g/dL
same,Ht,"[…], time 7 day",40.6%
same,Lym,"[…], time 7 day",81.8%
same,MCH,"[…], time 7 day",21.5 pg
same,MCHC,"[…], time 7 day",33.6%
same,MCV,"[…], time 7 day",63.9 fL
same,Mono,"[…], time 7 day",2.2%
same,Neu,"[…], time 7 day",14.4%
same,PT,"[…], time 7 day",15.6 s
same,Plat,"[…], time 7 day",107.6 x10_4/uL
same,RBC,"[…], time 7 day",636 x10_4/ul
same,Ret,"[…], time 7 day",6.5%
same,WBC,"[…], time 7 day",91.6 x10_2/uL
same,APTT,"[…], time 14 day",16.5 s
same,Bas,"[…], time 14 day",0%
same,Eos,"[…], time 14 day",0.8%
same,Fbg,"[…], time 14 day",262.8 mg/dL
same,Hb,"[…], time 14 day",14.2 g/dL
same,Ht,"[…], time 14 day",41.5%
same,Lym,"[…], time 14 day",81.4%
same,MCH,"[…], time 14 day",20.7 pg
same,MCHC,"[…], time 14 day",34.2%
same,MCV,"[…], time 14 day",60.7 fL
same,Mono,"[…], time 14 day",3%
same,Neu,"[…], time 14 day",14.2%
same,PT,"[…], time 14 day",15.6 s
same,Plat,"[…], time 14 day",116.6 x10_4/uL
same,RBC,"[…], time 14 day",683.8 x10_4/ul
same,Ret,"[…], time 14 day",4.5%
same,WBC,"[…], time 14 day",103.2 x10_2/uL
same,APTT,"[…], time 28 day",17.6 s
same,Bas,"[…], time 28 day",0.4%
same,Eos,"[…], time 28 day",1.6%
same,Fbg,"[…], time 28 day",274.4 mg/dL
same,Hb,"[…], time 28 day",15.8 g/dL
same,Ht,"[…], time 28 day",45.6%
same,Lym,"[…], time 28 day",80.6%
same,MCH,"[…], time 28 day",19.9 pg
same,MCHC,"[…], time 28 day",34.5%
same,MCV,"[…], time 28 day",57.5 fL
same,Mono,"[…], time 28 day",2%
same,Neu,"[…], time 28 day",14.8%
same,PT,"[…], time 28 day",15.9 s
same,Plat,"[…], time 28 day",91.9 x10_4/uL
same,RBC,"[…], time 28 day",792.8 x10_4/ul
same,Ret,"[…], time 28 day",2.3%
same,WBC,"[…], time 28 day",101.1 x10_2/uL
same,KIDNEY_L,"[…], time 7 day",1.1 g
same,KIDNEY_R,"[…], time 7 day",1.1 g
same,KIDNEY_TOTAL,"[…], time 7 day",2.3 g
same,KIDNEY_L,"[…], time 14 day",1.3 g
same,KIDNEY_R,"[…], time 14 day",1.3 g
same,KIDNEY_TOTAL,"[…], time 14 day",2.7 g
same,KIDNEY_L,"[…], time 28 day",1.5 g
same,KIDNEY_R,"[…], time 28 day",1.4 g
same,KIDNEY_TOTAL,"[…], time 28 day",2.9 g
same,LIVER,"[…], time 7 day",14 g
same,LIVER,"[…], time 14 day",16.6 g
same,LIVER,"[…], time 28 day",16.7 g
same,A/G,"[…], time 7 day",0.8
same,ALP,"[…], time 7 day",1827.8 IU/L
same,ALT,"[…], time 7 day",37.6 IU/L
same,AST,"[…], time 7 day",64.2 IU/L
same,BUN,"[…], time 7 day",18 mg/dL
same,CRE,"[…], time 7 day",0.2 mg/dL
same,Ca,"[…], time 7 day",11 mg/dL
same,Cl,"[…], time 7 day",104.8 meq/L
same,DBIL,"[…], time 7 day",0.018 mg/dL
same,GLC,"[…], time 7 day",192.8 mg/dL
same,IP,"[…], time 7 day",7.8 mg/dL
same,K,"[…], time 7 day",4.3 meq/L
same,LDH,"[…], time 7 day",58.4 IU/L
same,Na,"[…], time 7 day",142 meq/L
same,PL,"[…], time 7 day",158 mg/dL
same,RALB,"[…], time 7 day",2.7 g/dL
same,TBIL,"[…], time 7 day",0.05 mg/dL
same,TC,"[…], time 7 day",78 mg/dL
same,TG,"[…], time 7 day",120.8 mg/dL
same,TP,"[…], time 7 day",5.9 g/dL
same,gamma-GTP,"[…], time 7 day",0.6 IU/L
same,A/G,"[…], time 14 day",0.8
same,ALP,"[…], time 14 day",1412.8 IU/L
same,ALT,"[…], time 14 day",37.6 IU/L
same,AST,"[…], time 14 day",63.6 IU/L
same,BUN,"[…], time 14 day",17.4 mg/dL
same,CRE,"[…], time 14 day",0.2 mg/dL
same,Ca,"[…], time 14 day",10.7 mg/dL
same,Cl,"[…], time 14 day",103.4 meq/L
same,DBIL,"[…], time 14 day",0.02 mg/dL
same,GLC,"[…], time 14 day",192.4 mg/dL
same,IP,"[…], time 14 day",7.6 mg/dL
same,K,"[…], time 14 day",4.1 meq/L
same,LDH,"[…], time 14 day",82.6 IU/L
same,Na,"[…], time 14 day",141.6 meq/L
same,PL,"[…], time 14 day",163 mg/dL
same,RALB,"[…], time 14 day",2.7 g/dL
same,TBIL,"[…], time 14 day",0.05 mg/dL
same,TC,"[…], time 14 day",81.8 mg/dL
same,TG,"[…], time 14 day",142 mg/dL
same,TP,"[…], time 14 day",6 g/dL
same,gamma-GTP,"[…], time 14 day",0.6 IU/L
same,A/G,"[…], time 28 day",0.8
same,ALP,"[…], time 28 day",1021.6 IU/L
same,ALT,"[…], time 28 day",37.2 IU/L
same,AST,"[…], time 28 day",59.4 IU/L
same,BUN,"[…], time 28 day",17.8 mg/dL
same,CRE,"[…], time 28 day",0.2 mg/dL
same,Ca,"[…], time 28 day",10.6 mg/dL
same,Cl,"[…], time 28 day",105 meq/L
same,DBIL,"[…], time 28 day",0.014 mg/dL
same,GLC,"[…], time 28 day",191.2 mg/dL
same,IP,"[…], time 28 day",6.7 mg/dL
same,K,"[…], time 28 day",4 meq/L
same,LDH,"[…], time 28 day",52 IU/L
same,Na,"[…], time 28 day",142.8 meq/L
same,PL,"[…], time 28 day",156.6 mg/dL
same,RALB,"[…], time 28 day",2.8 g/dL
same,TBIL,"[…], time 28 day",0.046 mg/dL
same,TC,"[…], time 28 day",77.4 mg/dL
same,TG,"[…], time 28 day",123 mg/dL
same,TP,"[…], time 28 day",6.2 g/dL
same,gamma-GTP,"[…], time 28 day",0.6 IU/L
